# Patent publication US4033992A, “Novel compounds of the 11-deoxyprostaglandin E3, R3α, and F3β series” (priority 1975, dated 1977)
# Key:
# gastric acid secretion = test: Gastric acid secretion inhibitory action, modified "Shay rat" procedure; format: in vivo, rats (male, CFE strain); conditions: 3 hours
# Description: The novel compounds of the present invention (and those wherein R2 is hydroxy when X is keto and Y is ethylene) are effective inhibitors of gastric acid secretion and of ulcer development in experimental animals, and thus are potentially valuable as agents for the control of gastric acid secretion and of gastric erosion and as anti-ulcer agents. Gastric acid secretion inhibitory action was measured by the "Shay rat" procedure with some modifications as follows.
# The rats (male, CFE strain) were starved for 48 hours (water was given ad libitum) to permit evacuation of stomach contents. On the morning of the experiment, under ether anesthesia, the abdominal region was shaved and a midline incision (1-1 1/2") was made with a scapel. With the help of a closed curved hemostate the duodenum was picked up. Upon getting the duodenum into view, fingers were used to pull the stomach through the opening, the stomach was then gently manipulated with fingers to rid the stomach of air and residual matter which were pushed through the pylorus. Two-5 inch sutures were drawn under the pyloric-duodenal juncture. A ligature, at the juncture, was formed with one of the threads. The second ligature was also formed but not tightened.
# The test compound or the vehicle, usually 1 ml./100 g. body weight, were injected into the duodenum as close as possible to the first ligature. […]
# The abdominal cavity was exposed by cutting with scissors and the esophagus close to the stomach was clamped off with a hemostat, the stomach was removed by cutting above the hemostat (the esophagus was cut) and between the two sutures. […] The supernatant was collected, volume measured and recorded, 2 drops of a phenolphthalein indicator (1% in 95% ethanol) were added and the solution was titrated with 0.02 N NaOH (or with 0.04 N NaOH when large volumes of stomach contents were encountered) to pH 8.4 (because of usual coloring of the stomach contents, phenolphthalein was only used to permit visual indication that the end point was near) and the amount of acid present was calculated. […]
# ulcers = test: Indomethacin-induced ulcer assay (anti-ulcer); format: in vivo, Rats; conditions: Indomethacin 20 mg./kg. s.c., score 0-4
# Description: Another assay useful for determining potential anti-ulcer agents is carried out in the following manner.
# Rats were starved for 48 hours (water was given as libitum). Indomethacin (20 mg./kg. of body weight) was administered by the subcutaneous route and one-half the dose of the test compound was administered by gavage at the same time. After three hours, the second half of the test compound was administered also by gavage. Five hours after the administration of Indomethacin the animals were decapitated and the stomachs removed. The stomachs were washed with distilled water, blotted on gauze, cut along the larger curvature, and the contents rinsed with distilled water. The stomachs were spread out, pinned on a cork and visualized under magnifying glass for ulcers. The critera for scoring of ulcers was as previously reported. [Abdel-Galil et al. Brit. J. Pharmac. Chemotherapy 33:1-14 (1968)].
# 1-- Petechial hemmorrhage or pin point ulcers
# 3-- Many ulcers, a few large
# 4-- Many ulcers, mainly large
# Control animals treated with Indomethacin but not test compound consistently give scores of about 2.5-3.5. Control animals treated with neither Indomethacin nor test compound give scores of about 0.5-0.8. Compounds diminishing the control ulcer score by 0.5 unit or more are considered to be active
# [1] = tested on: bronchospasms elicited by intravenous injections of 5-hydroxytryptamine, histamine, or acetylchlorine; test: Bronchodilator activity by the Konzett procedure; format: in vivo, guinea pigs; conditions: Cavia porcellus, three logarithmic cumulative intravenous doses
# Description: Bronchodilator activity was determined in guinea pigs against bronchospasms elicited by intravenous injections of 5-hydroxytryptamine, histamine, or acetylchlorine by the Konzett procedure. [See J. Lulling, P. Lievens, F. El Sayed and J. Prignot, Arzneimittel-Forschung, 18,995 (1968).] This activity is expressed as an ED50 determined from the results obtained with three logarithmic cumulative intravenous doses.
# [2] = intraduodenal dose 50 mg./kg. of body weight
Structure (SMILES),Percent Inhibition (gastric acid secretion) (gastric acid secretion; [2]) [%],"Score, Treated Animals (ulcer score) (ulcers; total oral dose 50 mg./kg. of body weight, Controls 2.8)",ED50 ([1]; spasmogenic agent 5-hydroxytryptamine) [µg/kg],ED50 ([1]; spasmogenic agent acetylcholine) [µg/kg],ED50 ([1]; spasmogenic agent histamine) [µg/kg],Percent Inhibition (gastric acid secretion) (gastric acid secretion; intraduodenal dose 12.5 mg./kg. of body weight) [%],"Score, Treated Animals (ulcer score) (ulcers; total oral dose 12.5 mg./kg. of body weight, Controls 2.7)"
"CCCCC[C@H](O)/C=C/[C@H]1CC[C@H](O)[C@@H]1C/C=C\CCCC(=O)O [l-11-deoxyprostaglandin F2 α, 11-deoxyprostaglandin F2 α]",98,1.3,,,,,
"CCCCC[C@H](O)/C=C/[C@H]1CCC(=O)[C@@H]1C/C=C\CCCC(=O)O [l-11-deoxyprostaglandin E2, 11-deoxyprostaglandin E2]",97,,5.2,10,5.2,42,1.2
